What is called EC50 is the concentration that produces a half-maximal response.

Where “and” joins values, the source holds several entries; their conditions need not be identical. Equal entries are not always repeated. Where two headings read alike, the source gives them in different places. Peptide text beside a SMILES is read from it.

For assay [1], the system named is LIM 1215 cells.
From the text: The material was synthesized, using art recognized techniques, and was then used in a mitogenic assay on LIM 1215 cells, following Nice et al., J. Biol. Chem. 266: 14425-14430 (1991), which is incorporated by reference in its entirety.
A further assay concerns colonic crypt cells. As to the kind of experiment: Growth factors together with LIM 2537 conditioned medium on colonic crypt cells (synergism). Type of assay: cell-based. Particulars: tested on murine colonic crypt cells.
The subject of assay [2] is LIM 1215 cells. As to the kind of experiment: Colony formation of LIM 1215 cells in semi-solid agar. It is filed as cell-based, human. The settings on record: rhEGF 10 ng/ml alone. Here is the method: Colony formation using various factors was studied. Cells of cell line LIM 1215 were cloned in semi-solid agar (0.3%) following Whitehead et al., Int. J. Canc. 46:858-863 (1990). Briefly, the cells were trypsinized and resuspended in RPMI 1640 plus 5% FCS. Cells in the suspension were counted and then resuspended in a mixture of 0.3% agar in RPMI 1640 plus 10% FCS (40° C.), at a concentration of 10^4 cells per ml. The mixture was plated in 1.5 volumes in 35 mm^2 dishes, and allowed to set. Plates were then incubated at 37° C. in 5% CO2 and 100% humidity for 14 days. A solution of 0.1% crystal violet was aded to the plates, and colonies of more than 40 cells were counted.
Conditioned medium was prepared by incubating confluent monolayers of colon carcinoma cell lines with fresh RPMI 1640 plus 5% FCS for 48 hours. Medium was then removed, sterilized by filtration, and added to the agar plates at a final concentration of 10% (v/v). […] See Whitehead, supra.
The effect of the POMC76-103, alone and combination with epidermal growth factor (EGF) was investigated. The peptide and recombinant human EGF ("rhEGF") were tested alone, and combined, in colony formation assays as described supra.

Method for colonic crypt cells: In another set of experiments, human colonic crypt cells were tested with conditioned medium from LIM 2537, together with different growth factors.

With `CSCC[C@H](NC(=O)[C@@H](NC(=O)[C@H](Cc1ccc(O)cc1)NC(=O)[C@@H](N)CCCCN)C(C)C)C(=O)NCC(=O)N[C@@H](Cc1c[nH]cn1)C(=O)N[C@@H](Cc1ccccc1)C(=O)N[C@@H](CCCNC(=N)N)C(=O)N[C@@H](Cc1c[nH]c2ccccc12)C(=O)N[C@@H](CC(=O)O)C(=O)N[C@@H](CCCNC(=N)N)C(=O)N[C@@H](Cc1ccccc1)C(=O)NCC(=O)N[C@@H](CCCNC(=N)N)C(=O)N[C@@H](CCCNC(=N)N)C(=O)N[C@@H](CC(N)=O)C(=O)NCC(=O)N[C@@H](CO)C(=O)N[C@@H](CO)C(=O)N[C@@H](CO)C(=O)N[C@@H](CO)C(=O)NCC(=O)N[C@H](C(=O)NCC(=O)NCC(=O)N[C@@H](C)C(=O)N[C@@H](C)C(=O)N[C@@H](CCC(N)=O)C(=O)O)C(C)C` [POMC76-103] (H-KYVMGHFRWDRFGRRNGSSSSGVGGAAQ-OH), in the assay with LIM 1215 cells [1], the EC50 is about 0.075 nM.

Turning to EGF: epidermal growth factor, the “synergism with the LIM 2537 conditioned medium” value (“synergism” for short) in the assay with colonic crypt cells was “None of these factors showed any synergism”. The molecule further came in with a stimulation index in the assay on LIM 1215 cells [1] (LIM 1215 cells, FIGS. 16A/16B) of 8 fold. The molecule also had a 50% effective concentration (EC50) in the assay with LIM 1215 cells [1] (mitogenic assay, LIM 1215 cells) of 0.05 nM.

As for IL-6: interleukin 6, the “synergism” value in the assay on colonic crypt cells was “None of these factors showed any synergism”.

Consider PDGF, for which, in the assay with colonic crypt cells, the “synergism” value is given as “None of these factors showed any synergism”.

For rhEGF: recombinant human EGF, the “LIM 1215 Colony Stimulating Activity, Colonies” value with LIM 1215 cells [2] was 300 and 320.

The record behind these values is US5547940A, “Method for stimulating proliferation of colon cells using POMC76-103” (Ludwig Institute for Cancer Research, priority 1994, dated 1996).
